Tested on: JR251 or RBL cells
Assay: Store-operated calcium entry IC50 in either JR251 or RBL cells
Type: cell-based
Protocol: The day prior to performing the assay Orai1/STIM1 stable cells were plated in 50 μL of complete medium at 90-95% confluence in a 384 well plate. Cells were grown at 37° C./6% CO2 overnight. On the day of the assay, 1.5 μM fluo-4-AM (Invitrogen) in complete medium was added to the cells, which were then incubated for 1 hour at RT. Cells were washed once in Ca^2+-free HBSS (Hank's buffered saline solution) and 35 μl of Ca^2+-free HBSS was added to each well. Test compounds were added to wells in a 10 μL Ca^2+-free HBSS solution, prepared at 4.5× the desired final concentration, and incubated for 30 minutes at RT. The initial baseline fluorescence signal was then measured with a FLIPR^384 (Molecular Devices) plate reader. Calcium entry was initiated by adding 5 μl of 10× CaCl2 (10 mM) in HBSS, and changes in cellular fluorescence were measured with the FLIPR^384 plate reader. In each well, the magnitude of the fluorescence signal as a result of calcium entry into the cell was determined by calculating the difference between the peak fluorescence signal measured after calcium addition and the initial baseline fluorescence signal (designated Peak-Basal). IC50 values were typically calculated as the concentration that inhibited 50% of the Peak-Basal signal (Table A).
The day prior to performing the assay, RBL-2H3 cells are plated in 50 μL of complete medium in a 384 well plate. Cells are grown at 37° C./6% CO2 overnight and grow to 50-60% confluence by the next day. On the assay day, 1.5 μM Fluo-4-AM dye (Invitrogen) in complete medium is added and incubated for 1 hour at RT. Cells are washed twice in Ca^2+-free HBSS buffer and 35 μL Ca^2+-free HBSS buffer is added to each well. 10 μL of a test compound prepared in a Ca^2+-free HBSS solution at 4.5× of the desired concentration is added to a well and incubated for 5 minutes at RT. 10 μL of thapsigargin prepared in a Ca^2+-free HBSS solution at 5.5× of the desired concentration (5.5 uM) is added to each well and incubated for an additional 25 minutes. The initial baseline fluorescence signal is measured with a FLIPR^384 (Molecular Devices) plate reader. 5 μL of 12× calcium in HBSS (12 mM) is added and changes in cellular fluorescence are measured with the FLIPR^384 plate reader. In each well, the change in the fluorescent signal as a function of time due to calcium entry into the cell is determined by calculating the difference between the fluorescent signal measured 7 seconds after calcium addition and the initial baseline fluorescence signal at time zero (t=0). This parameter is designated Upslope. The IC50 value is calculated as the concentration at which 50% of the Upslope is inhibited.

| IC50 [µM] | SMILES |
| --- | --- |
| < 10 | O=C(Nc1scc(-c2c[nH]c3ccccc23)c1C(=O)O)c1cccc(F)c1 [2-(3-fluorobenzamido)-4-(1H-indol-3-yl)thiophene-3-carboxylic acid] |
| < 10 | Cc1nc(N2CCCCC2)ncc1-c1csc(NC(=O)c2cccc(F)c2)c1C(=O)O [2-(3-fluorobenzamido)-4-(4-methyl-2-(piperidin-1-yl)pyrimidin-5-yl)thiophene-3-carboxylic acid] |
| < 10 | Cc1csc(-c2csc(NC(=O)c3cccc(F)c3)c2C(=O)O)n1 [2-(3-fluorobenzamido)-4-(4-methylthiazol-2-yl)thiophene-3-carboxylic acid] |
| < 10 | COc1ccc(-c2csc(NC(=O)c3cccc(F)c3)c2C(=O)O)cn1 [2-(3-fluorobenzamido)-4-(6-methoxypyridin-3-yl)thiophene-3-carboxylic acid] |
| < 10 | O=C(Nc1scc(-c2cnccn2)c1C(=O)O)c1cccc(F)c1 [2-(3-fluorobenzamido)-4-(pyrazin-2-yl)thiophene-3-carboxylic acid] |
| < 10 | O=C(Nc1scc(-c2ncco2)c1C(=O)O)c1ccc(F)cc1 [2-(4-fluorobenzamido)-4-(oxazol-2-yl)thiophene-3-carboxylic acid] |
| < 10 | Cc1nc(N2CCCCC2)ncc1-c1csc(NC(=O)c2snnc2C)c1C(=O)O [2-(4-methyl-1,2,3-thiadiazole-5-carboxamido)-4-(4-methyl-2-(piperidin-1-yl)pyrimidin-5-yl)thiophene-3-carboxylic acid] |
| < 10 | Cc1nnsc1C(=O)Nc1scc(-c2cnccn2)c1C(=O)O [2-(4-methyl-1,2,3-thiadiazole-5-carboxamido)-4-(pyrazin-2-yl)thiophene-3-carboxylic acid] |
| < 10 | Cc1cc(-c2csc(NC(=O)c3cnn(C)c3Cl)c2C(=O)O)n(C)n1 [2-(5-chloro-1-methyl-1H-pyrazole-4-carboxamido)-4-(1,3-dimethyl-1H-pyrazol-5-yl)thiophene-3-carboxylic acid] |
| < 10 | Cn1ncc(C(=O)Nc2scc(-c3cnn(-c4ccc(Cl)cc4)c3)c2C(=O)O)c1Cl [2-(5-chloro-1-methyl-1H-pyrazole-4-carboxamido)-4-(1-(4-chlorophenyl)-1H-pyrazol-4-yl)thiophene-3-carboxylic acid] |
| < 10 | Cc1nc(N2CCCCC2)ncc1-c1csc(NC(=O)c2cnn(C)c2Cl)c1C(=O)O [2-(5-chloro-1-methyl-1H-pyrazole-4-carboxamido)-4-(4-methyl-2-(piperidin-1-yl)pyrimidin-5-yl)thiophene-3-carboxylic acid] |
| < 10 | Cc1ccc(-c2csc(NC(=O)c3nc4ccccc4o3)c2C(=O)O)c2ccccc12 [2-(benzo[d]oxazole-2-carboxamido)-4-(4-methylnaphthalen-1-yl)thiophene-3-carboxylic acid] |
| < 10 | O=C(Nc1scc(-c2ccc3ccccc3c2)c1C(=O)O)c1nc2ccccc2o1 [2-(benzo[d]oxazole-2-carboxamido)-4-(naphthalen-2-yl)thiophene-3-carboxylic acid] |
| < 10 | O=C(Nc1scc(-c2nc3ccccc3n2C(F)F)c1C(=O)O)c1cc2ccccc2o1 [2-(benzofuran-2-carboxamido)-4-(1-(difluoromethyl)-1H-benzo[d]imidazol-2-yl)thiophene-3-carboxylic acid] |
| < 10 | Cn1ccc2cc(-c3csc(NC(=O)c4cc5ccccc5o4)c3C(=O)O)ccc21 [2-(benzofuran-2-carboxamido)-4-(1-methyl-1H-indol-5-yl)thiophene-3-carboxylic acid] |
| < 10 | Cn1nc(C(F)(F)F)cc1-c1csc(NC(=O)c2cc3ccccc3o2)c1C(=O)O [2-(benzofuran-2-carboxamido)-4-(1-methyl-3-(trifluoromethyl)-1H-pyrazol-5-yl)thiophene-3-carboxylic acid] |
| < 10 | O=C(Nc1scc(-c2c[nH]c3ccccc23)c1C(=O)O)c1cc2ccccc2o1 [2-(benzofuran-2-carboxamido)-4-(1H-indol-3-yl)thiophene-3-carboxylic acid] |
| < 10 | O=C(Nc1scc(-c2cnc3[nH]ccc3c2)c1C(=O)O)c1cc2ccccc2o1 [2-(benzofuran-2-carboxamido)-4-(1H-pyrrolo[2,3-b]pyridin-5-yl)thiophene-3-carboxylic acid] |

| IC50 [µM] | SMILES |
| --- | --- |
| < 10 | Cc1nc(C)c(-c2csc(NC(=O)c3cc4ccccc4o3)c2C(=O)O)s1 [2-(benzofuran-2-carboxamido)-4-(2,4-dimethylthiazol-5-yl)thiophene-3-carboxylic acid] |
| < 10 | O=C(Nc1scc(-c2ccc(F)nc2F)c1C(=O)O)c1cc2ccccc2o1 [2-(benzofuran-2-carboxamido)-4-(2,6-difluoropyridin-3-yl)thiophene-3-carboxylic acid] |
| < 10 | O=C(Nc1scc(-c2cnc(C(F)(F)F)nc2)c1C(=O)O)c1cc2ccccc2o1 [2-(benzofuran-2-carboxamido)-4-(2-(trifluoromethyl)pyrimidin-5-yl)thiophene-3-carboxylic acid] |
| < 10 | O=C(Nc1scc(-c2ccnc(F)c2)c1C(=O)O)c1cc2ccccc2o1 [2-(benzofuran-2-carboxamido)-4-(2-fluoropyridin-4-yl)thiophene-3-carboxylic acid] |
| < 10 | Cc1ccc(-c2csc(NC(=O)c3cc4ccccc4o3)c2C(=O)O)c2ccccc12 [2-(benzofuran-2-carboxamido)-4-(4-methylnaphthalen-1-yl)thiophene-3-carboxylic acid] |
| < 10 | Cc1csc(-c2csc(NC(=O)c3cc4ccccc4o3)c2C(=O)O)n1 [2-(benzofuran-2-carboxamido)-4-(4-methylthiazol-2-yl)thiophene-3-carboxylic acid] |
| < 10 | CCOc1ccc(-c2csc(NC(=O)c3cc4ccccc4o3)c2C(=O)O)cn1 [2-(benzofuran-2-carboxamido)-4-(6-ethoxypyridin-3-yl)thiophene-3-carboxylic acid] |
| < 10 | O=C(Nc1scc(-c2ccc(F)nc2)c1C(=O)O)c1cc2ccccc2o1 [2-(benzofuran-2-carboxamido)-4-(6-fluoropyridin-3-yl)thiophene-3-carboxylic acid] |
| < 10 | COc1ccc(-c2csc(NC(=O)c3cc4ccccc4o3)c2C(=O)O)cn1 [2-(benzofuran-2-carboxamido)-4-(6-methoxypyridin-3-yl)thiophene-3-carboxylic acid] |
| < 10 | Cc1ccc(-c2csc(NC(=O)c3cc4ccccc4o3)c2C(=O)O)cn1 [2-(benzofuran-2-carboxamido)-4-(6-methylpyridin-3-yl)thiophene-3-carboxylic acid] |
| < 10 | COc1cccc2cc(-c3csc(NC(=O)c4cc5ccccc5o4)c3C(=O)O)[nH]c12 [2-(benzofuran-2-carboxamido)-4-(7-methoxy-1H-indol-2-yl)thiophene-3-carboxylic acid] |
| < 10 | Cc1ccc(-c2csc(NC(=O)c3cc4ccccc4o3)c2C(=O)O)c2cccnc12 [2-(benzofuran-2-carboxamido)-4-(8-methylquinolin-5-yl)thiophene-3-carboxylic acid] |
| < 10 | O=C(Nc1scc(-c2ccc3ccccc3c2)c1C(=O)O)c1cc2ccccc2o1 [2-(benzofuran-2-carboxamido)-4-(naphthalen-2-yl)thiophene-3-carboxylic acid] |
| < 10 | O=C(Nc1scc(-c2ccc3nccnc3c2)c1C(=O)O)c1cc2ccccc2o1 [2-(benzofuran-2-carboxamido)-4-(quinoxalin-6-yl)thiophene-3-carboxylic acid] |
| < 10 | Cc1ccc(-c2csc(NC(=O)c3ccccc3)c2C(=O)O)o1 [2-benzamido-4-(5-methylfuran-2-yl)thiophene-3-carboxylic acid] |
| < 10 | Cc1cc(-c2csc(NC(=O)c3cccc(F)c3)c2C(=O)O)n(C)n1 [4-(1,3-dimethyl-1H-pyrazol-5-yl)-2-(3-fluorobenzamido)thiophene-3-carboxylic acid] |
| < 10 | Cc1cc(-c2csc(NC(=O)c3snnc3C)c2C(=O)O)n(C)n1 [4-(1,3-dimethyl-1H-pyrazol-5-yl)-2-(4-methyl-1,2,3-thiadiazole-5-carboxamido)thiophene-3-carboxylic acid] |
| < 10 | Cn1cnc(C(=O)Nc2scc(-c3cnn(-c4ccc(Cl)cc4)c3)c2C(=O)O)c1 [4-(1-(4-chlorophenyl)-1H-pyrazol-4-yl)-2-(1-methyl-1H-imidazole-4-carboxamido)thiophene-3-carboxylic acid] |
